Data from ChEMBL document CHEMBL4842386, “Discovery of Reldesemtiv, a Fast Skeletal Muscle Troponin Activator for the Treatment of Impaired Muscle Function” (J Med Chem, 2021).
≈ marks a conversion by molar mass, not a printed value. Calls of active or inactive are those of the source. The rule behind the calls is not given here.

What was measured:
[1] = system: Psoas muscle; assay: Activation of fast twitch skeletal muscle in rabbit psoas muscle myofibrils by measuring increase in myofibril ATPase activity at 25% calcium concentration; assay type: functional; conditions: Oryctolagus cuniculus
[2] = system: Psoas muscle; assay: Increase in psoas muscle force in rabbit skinned single fiber preparation at a calcium concentration that produces a force increase that is 25% of the maximum response in a control preparation by skinned fast skeletal muscle fiber assay; assay type: functional; conditions: Oryctolagus cuniculus
[3] = Thermodynamic solubility of the compound; assay type: physicochemical; conditions: read-out: Therm_solubility
[4] = Metabolic stability in human liver microsomes assessed as intrinsic clearance measured after 90 mins by HPLC/MS/MS analysis; assay type: ADME, Microsome; conditions: read-out: CLH
[5] = target: Voltage-gated inwardly rectifying potassium channel KCNH2 (Homo sapiens, UniProt Q12809); assay: Inhibition of human ERG expressed in HEK293 cells at -80 mV holding potential by patch clamp assay; assay type: cell-based
[6] = Efflux ratio of apparent permeability in human Caco-2 cells; assay type: ADME, cell-based
[7] = Drug distribution in Sprague-Dawley rat plasma to blood ratio at 100 mg/kg, po by HPLC analysis; assay type: ADME, organism-based; conditions: in vivo
[8] = Plasma protein binding in male rat assessed as unbound fraction; assay type: ADME, cell-free
[9] = Drug distribution in Sprague-Dawley rat brain to blood ratio at 100 mg/kg, po by HPLC analysis; assay type: ADME, organism-based
[10] = Drug distribution in Sprague-Dawley rat Soleus muscle to blood ratio at 100 mg/kg, po by HPLC analysis; assay type: ADME, organism-based
[11] = system: Extensor digitorum longus; assay: Increase in muscle tension in rat extensor digitorum longus muscle rat model assessed as free plasma concentration to increase muscle tension at subtetanic nerve stimulation rate of 30 Hz; assay type: functional, tissue-based
[12] = target: hERG (KCNH2) (Homo sapiens, UniProt Q12809); assay: Displacement of [3H]astemizole from human ERG expressed in HEK293 cells at 100 uM relative to control; assay type: cell-based; conditions: HEK293 cells that express hERG, probe [3H]astemizole
[13] = Clearance in male Sprague-Dawley rat at 1 mg/kg, po administered as single dose measured up to 24 hrs by HPLC analysis; assay type: ADME, organism-based; conditions: in vivo
[14] = Oral bioavailability in male Sprague-Dawley rat at 1 mg/kg administered as single dose measured up to 24 hrs by HPLC analysis; assay type: ADME, organism-based; conditions: in vivo
[15] = Metabolic stability in male rat liver microsomes assessed as intrinsic clearance measured after 90 mins by HPLC/MS/MS analysis; assay type: ADME, Microsome; conditions: read-out: CLH
[16] = Intrinsic clearance in male rat hepatocytes; assay type: ADME, cell-based, Hepatocyte; conditions: read-out: CLH
[17] = Volume of distribution at steady state in male Sprague-Dawley rat at 1 mg/kg, po administered as single dose measured up to 24 hrs by HPLC analysis; assay type: ADME, organism-based; conditions: in vivo
[18] = Drug distribution in Sprague-Dawley rat extensor digitorum longus to blood ratio at 100 mg/kg, po by HPLC analysis; assay type: ADME, organism-based
[19] = Clearance in male Sprague-Dawley rat at 3 mg/kg, po administered as single dose measured up to 24 hrs by HPLC analysis; assay type: ADME, organism-based; conditions: in vivo
[20] = Oral bioavailability in male Sprague-Dawley rat at 3 mg/kg administered as single dose measured up to 24 hrs by HPLC analysis; assay type: ADME, organism-based; conditions: in vivo
[21] = target: T1, Nuclear receptor subfamily 1 group I member 2 (Homo sapiens, UniProt O75469); assay: Transactivation of human PXR transfected in DPX2 cells assessed as CYP3A4 induction at 10 uM by luciferase reporter gene assay; assay type: ADME, cell-based; conditions: dpx2, 10 µM
T1 sequence (O75469 whole entry): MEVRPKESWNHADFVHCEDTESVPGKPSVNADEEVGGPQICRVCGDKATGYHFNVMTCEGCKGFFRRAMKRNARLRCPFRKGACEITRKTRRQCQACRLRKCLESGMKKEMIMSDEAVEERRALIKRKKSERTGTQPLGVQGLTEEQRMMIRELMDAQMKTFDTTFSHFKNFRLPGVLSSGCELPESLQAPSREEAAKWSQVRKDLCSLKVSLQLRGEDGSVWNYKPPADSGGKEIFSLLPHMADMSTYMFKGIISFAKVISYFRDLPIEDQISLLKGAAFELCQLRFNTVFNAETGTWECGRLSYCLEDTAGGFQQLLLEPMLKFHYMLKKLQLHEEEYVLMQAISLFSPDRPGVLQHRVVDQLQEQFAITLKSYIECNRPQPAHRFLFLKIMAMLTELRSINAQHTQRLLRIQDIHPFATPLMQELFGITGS

[22] = Volume of distribution at steady state in male Sprague-Dawley rat at 3 mg/kg, po administered as single dose measured up to 24 hrs by HPLC analysis; assay type: ADME, organism-based; conditions: in vivo

Sequence of Voltage-gated inwardly rectifying potassium channel KCNH2 (Q12809 whole entry): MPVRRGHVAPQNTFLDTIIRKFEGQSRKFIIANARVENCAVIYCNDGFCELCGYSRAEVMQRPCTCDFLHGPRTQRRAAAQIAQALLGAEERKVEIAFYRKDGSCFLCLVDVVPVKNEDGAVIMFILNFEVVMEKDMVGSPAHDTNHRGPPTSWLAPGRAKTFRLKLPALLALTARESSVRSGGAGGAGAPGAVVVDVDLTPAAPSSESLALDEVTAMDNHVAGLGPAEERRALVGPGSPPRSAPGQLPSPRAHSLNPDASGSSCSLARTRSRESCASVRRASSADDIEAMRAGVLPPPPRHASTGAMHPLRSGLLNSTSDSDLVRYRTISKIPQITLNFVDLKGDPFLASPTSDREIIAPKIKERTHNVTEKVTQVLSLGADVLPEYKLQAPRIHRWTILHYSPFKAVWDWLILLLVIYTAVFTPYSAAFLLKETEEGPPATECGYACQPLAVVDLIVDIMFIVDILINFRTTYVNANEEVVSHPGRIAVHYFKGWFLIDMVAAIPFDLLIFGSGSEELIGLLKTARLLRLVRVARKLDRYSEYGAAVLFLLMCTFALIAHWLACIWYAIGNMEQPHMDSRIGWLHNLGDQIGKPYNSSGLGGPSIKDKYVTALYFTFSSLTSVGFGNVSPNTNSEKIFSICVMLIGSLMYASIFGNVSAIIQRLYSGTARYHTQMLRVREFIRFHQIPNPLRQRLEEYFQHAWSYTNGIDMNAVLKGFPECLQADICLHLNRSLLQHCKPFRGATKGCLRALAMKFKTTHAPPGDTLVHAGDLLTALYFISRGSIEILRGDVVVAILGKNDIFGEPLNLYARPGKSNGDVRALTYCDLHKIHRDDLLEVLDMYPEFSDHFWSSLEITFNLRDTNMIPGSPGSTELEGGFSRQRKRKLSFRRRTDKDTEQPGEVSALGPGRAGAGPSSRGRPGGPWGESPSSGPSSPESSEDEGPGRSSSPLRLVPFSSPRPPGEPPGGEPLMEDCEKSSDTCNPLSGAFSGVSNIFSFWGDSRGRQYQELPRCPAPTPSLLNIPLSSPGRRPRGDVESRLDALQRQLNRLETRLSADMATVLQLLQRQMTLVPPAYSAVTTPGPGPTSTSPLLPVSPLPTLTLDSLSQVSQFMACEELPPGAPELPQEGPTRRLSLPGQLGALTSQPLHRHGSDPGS
Sequence of hERG (KCNH2) (Q12809 whole entry): as above

Row | CLint scaled [4] [mL/min/kg] | Structure (SMILES) | EC40 [1] [µM] | EC30 [2] | other results
1 |  | Fc1ccc(Cc2nsc(NCCc3ccc(Cl)cc3)n2)cc1 | 4.3 | 13.7 µM | 
2 |  | NC(=O)c1cnc(-c2ccc(NCC3(c4ncccc4F)CCC3)nn2)o1 | 3.9 | 5.4 µM | 
3 |  | CC(C)CCNc1nc(Cc2ccc(F)cc2)ns1 | > 49 |  | 
4 |  | CC(C)(CNc1cnc(-c2cccc(C(N)=O)c2)cn1)c1ccc(F)cc1 | 0.8 | inactive | 
5 |  | Fc1ccc(CCNc2nc(Cc3ccc(F)cc3)ns2)cc1 | 9.9 |  | 
6 | 11 | CC(C)(CNc1nc(-c2cccc(C(N)=O)c2)ns1)c1ccc(F)cc1 | 0.5 | 1.4 µM | solubility thermodynamic [3]: < 27 µM
7 |  | NC(=O)c1cc(-c2ccc(NCC3(c4ncccc4F)CCC3)nn2)ncn1 | 4.4 |  | 
8 |  | Fc1ccc(Cc2nsc(NCCc3ccccc3)n2)cc1 | 23.3 |  | 
9 | 6 | CC(C)(CNc1ncc(-c2cccc(C(N)=O)c2)cn1)c1ccc(F)cc1 | 8.7 | 7.8 µM | 
10 |  | NC(=O)c1cnc(-c2ccc(NCC3(c4ncccc4F)CCC3)nn2)s1 | 0.1 | 0.4 µM | IC50 [5]: > 100 µM
11 |  | CN(C)C(=O)c1cnn(-c2ccc(NCC3(c4ncccc4F)CCC3)nn2)c1 | 20.2 |  | 
12 |  | CC(CNc1nc(Cc2ccc(F)cc2)ns1)c1ccc(Cl)cc1 (stereo not drawn) | 1.1 | 16.7 µM | solubility thermodynamic [3]: < 27 µM
13 |  | CC(C)(CNc1nc(-c2ccccc2)ns1)c1ccc(F)cc1 | 8.9 |  | 
14 |  | C#Cc1cnc2nc(O)n(C(CC)CC)c2n1 [TIRASEMTIV] |  |  | efflux ratio [6]: 0.9; Ratio [7]: 1.62; fraction unbound [8]: 0.05; Kp [9]: 0.27; Kp [10]: 0.3; EC50 [11]: 6 µM
15 |  | CN(CC1(c2ccccn2)CCC1)c1ccc(-c2cccc(C(N)=O)c2)nn1 | > 49 |  | 
16 | 15 | NC(=O)c1cccc(-c2ccc(NCC3(c4ccc(F)cc4)CCC3)nn2)c1 | 0.2 | 0.6 µM | 
17 | 9 | CC(C)(CNc1nc(-c2ccc(C(N)=O)cc2)ns1)c1ccc(F)cc1 | 0.5 | 2.3 µM | solubility thermodynamic [3]: < 27 µM
18 | < 14 | NC(=O)c1ccn(-c2cnc(NCC3(c4ncccc4F)CCC3)nc2)c1 | 1.3 | 1.4 µM | inhibition at 100 µM [12]: 43%
19 |  | NC(=O)c1nccc(-c2ccc(NCC3(c4ncccc4F)CCC3)nn2)n1 | > 49 |  | 
20 |  | COCCCc1nsc(NCC(C)(C)c2ccc(F)cc2)n1 | 2.5 |  | 
21 | < 7 | NC(=O)c1cccc(-c2ccc(NCC3(c4ccccn4)CCC3)nn2)c1 | 0.5 | 0.9 µM | 

Row | CLint scaled [4] [mL/min/kg] | Structure (SMILES) | EC40 [1] [µM] | EC30 [2] | other results
22 |  | CC(C)(CNc1nsc(-c2cccc(C(N)=O)c2)n1)c1ccc(F)cc1 | 0.5 | 7.1 µM | 
23 | < 14 | NC(=O)c1cnn(-c2cnc(NC[C@]3(c4ncccc4F)C[C@H](F)C3)nc2)c1 | 1.2 | 3.3 µM | 
24 |  | NC(=O)c1cnn(-c2ccc(NCC3(c4ncccc4F)CC(F)(F)C3)nn2)c1 | 2.6 | 4 µM | 
25 | < 14 | NC(=O)c1cnn(-c2ccc(NCC3(c4ncccc4F)CCC3)nn2)c1 | 0.5 | 0.7 µM | CL/F [13]: 136 mL/min/kg; inhibition at 100 µM [12]: 19%; bioavailability [14]: 12%; fraction unbound [8]: 0.42; CLint scaled [15]: 30 mL/min/kg; CLint scaled [16]: 378 mL/min/kg; IC50 [5]: > 100 µM; Vdss [17]: 2.2 L/kg
26 | < 14 | NC(=O)c1cccc(-c2cnc(NC[C@]3(c4ncccc4F)C[C@H](F)C3)nc2)c1 | 0.3 | 0.8 µM | Kp [18]: 1.2; inhibition at 100 µM [12]: 46%; efflux ratio [6]: 1.8; Ratio [7]: 1.85; fraction unbound [8]: 0.15; CLint scaled [15]: 38 mL/min/kg; CL/F [19]: 59 mL/min/kg; Kp [9]: 0.15; bioavailability [20]: 21%; Activity [21]: 68%; CLint scaled [16]: 38 mL/min/kg; Kp [10]: 1.16; Vdss [22]: 1.7 L/kg
27 |  | CC(C)(CNc1cnc(-c2cccc(C(N)=O)c2)nc1)c1ccc(F)cc1 | 3.6 |  | 
28 | < 7 | NC(=O)c1cccc(-c2ccc(NCC3(c4cnccn4)CCC3)nn2)c1 | 46.1 |  | 
29 |  | CN(C)C(=O)c1cccc(-c2nsc(NCC(C)(C)c3ccc(F)cc3)n2)c1 | 2.9 | 3.1 µM | 
30 | < 7 | CNC(=O)c1cccc(-c2cnc(NC[C@]3(c4ncccc4F)C[C@H](F)C3)nc2)c1 | 0.9 | 0.5 µM | Kp [18]: 0.54; inhibition at 100 µM [12]: 42%; efflux ratio [6]: 10; Ratio [7]: 1.15; fraction unbound [8]: 0.27; CLint scaled [15]: 14 mL/min/kg; CL/F [19]: 52 mL/min/kg; Kp [9]: 0.027; Activity [21]: 31%; CLint scaled [16]: < 32 mL/min/kg; Kp [10]: 0.53; Vdss [22]: 2.6 L/kg
31 | < 14 | NC(=O)c1ccn(-c2ccc(NCC3(c4ncccc4F)CCC3)nn2)c1 | 0.9 | 1.1 µM | CL/F [13]: 73 mL/min/kg; inhibition at 100 µM [12]: 27%; fraction unbound [8]: 0.35; CLint scaled [15]: 26 mL/min/kg; Activity [21]: 43%; CLint scaled [16]: 207 mL/min/kg; IC50 [5]: 97 µM; Vdss [17]: 2.4 L/kg
32 | 8 | CC(C)(CNc1ccc(-c2cccc(C(N)=O)c2)nn1)c1ccc(F)cc1 | 1.2 | 3 µM | solubility thermodynamic [3]: 86 µM (≈ 31.3 µg/mL)
33 | 30 | CC(C)(CNc1ncns1)c1ccc(F)cc1 | 8.4 |  | 
34 |  | CC(Cc1ccc(Cl)cc1)Nc1nc(Cc2ccc(F)cc2)ns1 (stereo not drawn) | 22.1 |  | 
35 | 11 | NC(=O)c1cccc(-c2ccc(NCC3(c4ncccc4F)CCC3)nn2)c1 | 0.3 | 0.5 µM | 
36 | < 14 | NC(=O)c1cnn(-c2ccc(NC[C@]3(c4ncccc4F)C[C@H](F)C3)nn2)c1 | 0.8 | 1.1 µM | CL/F [13]: 115 mL/min/kg; inhibition at 100 µM [12]: 16%; fraction unbound [8]: 0.55; CLint scaled [15]: 30 mL/min/kg; Activity [21]: 7%; CLint scaled [16]: 90 mL/min/kg; Vdss [17]: 2.6 L/kg
37 | 7 | CC(C)(CNc1ccc(-c2cccc(C(N)=O)c2)cn1)c1ccc(F)cc1 | 0.5 | 1.5 µM | 
38 |  | NC(=O)c1ccn(-c2ccc(NCC3(c4ncccc4F)CCC3)nn2)n1 | 22.7 |  | 
39 | < 7 | NC(=O)c1cccc(-c2ccc(NCC3(c4ccc(F)cn4)CCC3)nn2)c1 | 3.5 | 2.3 µM | 
40 |  | CC(C)(CNc1ccc(-c2cccc(C(N)=O)c2)nc1)c1ccc(F)cc1 | 0.3 |  | 
41 |  | CC(C)(CNc1nc(Cc2ccc(F)cc2)ns1)c1ccc(Cl)cc1 | 0.6 | 7.4 µM | 
